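Cells were grown in 96-well plates and exposed to each compound for 48 hours at five concentrations; endpoints were interpolated linearly between bracketing concentrations, or set to the highest concentration if not reached. GI50 = concentration required for 50% inhibition of growth.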 The source made the active and inactive calls. No stated cut-off is given here; in the data, active = GI50 up to about 1.1 µM and inactive = higher.
Assays:
Experiment in all cases: NCI-60 cell line screen, 48 h
M19-MEL = test system: M19-MEL
DMS-273 = test system: DMS-273
SNB-78 = test system: SNB-78
XF498 = test system: XF498
RXF 631 = test system: RXF 631
HOP-18 = test system: HOP-18
DMS-114 = test system: DMS-114
KM-20L2 = test system: KM-20L2
DLD-1 = test system: DLD-1

Measured: GI50

CCOC(=O)C1=C(OC(OCC)C(CC)[Se]c2ccccc2)CCC1 (centres undefined)
inactive: M19-MEL 14.4 µM | DMS-273 13.2 µM | SNB-78 24.5 µM | XF498 23.1 µM | RXF 631 10.3 µM | HOP-18 23.1 µM | DMS-114 4.62 µM | KM-20L2 29.8 µM | DLD-1 19.3 µM

CC(C)(C)C1=Cc2cc3cc(C(C)(C)C)[nH]c(=O)c3cc2S(=O)(=O)N1
inactive: M19-MEL 19.7 µM | SNB-78 42.1 µM | DMS-114 21.4 µM | DLD-1 31.7 µM

COCC(=O)CP(=O)(OC)OC
inactive: M19-MEL > 100 µM | DMS-273 > 100 µM | SNB-78 > 100 µM | XF498 > 100 µM | DMS-114 > 100 µM

Cc1cccc(C(=O)O)c1C(=O)c1cccc2ccccc12
inactive: M19-MEL > 100 µM | DMS-273 > 100 µM | SNB-78 > 100 µM | HOP-18 > 100 µM | DMS-114 > 100 µM | KM-20L2 33.5 µM | DLD-1 > 100 µM

O=[N+]([O-])c1cccc(C2SCc3nc4ccccc4n32)c1 (centres undefined)
inactive: M19-MEL > 100 µM | DMS-273 85.7 µM | SNB-78 > 100 µM | XF498 > 10 µM | HOP-18 > 100 µM | DMS-114 53.5 µM | KM-20L2 > 100 µM | DLD-1 62.8 µM

COc1cc2c(cc1OC)[C@]1(O)C(=O)c3ccc4c(c3O[C@@H]1CO2)C[C@H](C(C)(C)O)O4
inactive: M19-MEL > 100 µM | DMS-273 > 100 µM | SNB-78 > 100 µM | XF498 > 100 µM | DMS-114 3.61 µM | KM-20L2 > 100 µM | DLD-1 > 100 µM

N#CC(NNC(=O)Cc1ccccc1)c1ccc([N+](=O)[O-])cc1 (centres undefined)
inactive: M19-MEL > 100 µM | DMS-273 > 100 µM | SNB-78 > 100 µM | HOP-18 82.8 µM | DLD-1 > 100 µM

O=C1C(c2ccccc2)=C(c2ccccc2)[C@H](c2ccccc2)[C@]1(Cc1nnn(-c2ccc([N+](=O)[O-])cc2)c1N1CCOCC1)c1ccccc1
inactive: M19-MEL > 37.5 µM | DMS-273 24.9 µM | SNB-78 > 37.5 µM | XF498 8.3 µM | RXF 631 > 37.5 µM | HOP-18 > 37.5 µM | DMS-114 > 37.5 µM | KM-20L2 > 37.5 µM | DLD-1 > 37.5 µM

NC(=O)NC1C(C(N)=O)N(Cc2ccccc2)C(=O)N1Cc1ccccc1 (centres undefined)
inactive: M19-MEL > 100 µM | DMS-273 > 100 µM | SNB-78 > 100 µM | XF498 > 100 µM | RXF 631 > 100 µM | HOP-18 > 100 µM | DMS-114 > 100 µM | KM-20L2 46 µM | DLD-1 > 100 µM

Cc1cc(C(=O)NCCN(C)C)c2nc3ccccc3nc2c1
inactive: M19-MEL 3.13 µM | DMS-273 3.87 µM | SNB-78 12.8 µM | HOP-18 > 35.1 µM | DMS-114 3.19 µM | KM-20L2 3.1 µM | DLD-1 4.08 µM

CCCCCCCCCCCC(=O)OCC1OC(n2cc(F)c(=O)[nH]c2=O)C(NC(=O)OCc2ccccc2)C(O)C1O (centres undefined)
inactive: M19-MEL 20 µM | DMS-273 19 µM | SNB-78 28.9 µM | KM-20L2 21.4 µM

N#CC(C(=O)/C(=N\Nc1nc(S)nn1N)C(C#N)c1ccc(Cl)cc1)c1ccc(Cl)cc1 (centres undefined)
inactive: M19-MEL > 100 µM | DMS-273 > 100 µM | SNB-78 > 100 µM | XF498 > 100 µM | HOP-18 > 100 µM | DMS-114 > 100 µM | KM-20L2 > 100 µM | DLD-1 > 100 µM

CC(C)(C)C(=O)O[C@@H]1COC2C(O)COC21 (some centres undefined)
inactive: M19-MEL > 100 µM | DMS-273 > 100 µM | SNB-78 > 100 µM | XF498 > 100 µM | RXF 631 > 100 µM | HOP-18 > 100 µM | DMS-114 > 100 µM | DLD-1 > 100 µM

N#CCCc1nc2ccc(Br)cc2c(=O)n1CCO
inactive: M19-MEL > 100 µM | SNB-78 > 100 µM | XF498 95.7 µM | RXF 631 > 100 µM | DMS-114 > 100 µM | DLD-1 > 100 µM

O=C(CN(Cc1ccccc1)Cc1ccccc1)N1CCc2c([nH]c3ccccc23)C1c1cccnc1 (centres undefined)
inactive: M19-MEL 5.98 µM | DMS-273 4.74 µM | SNB-78 15.8 µM | XF498 13.9 µM | HOP-18 46.5 µM | DMS-114 4.35 µM | KM-20L2 6.92 µM | DLD-1 6.4 µM

CC(Oc1ccc(OCC2CCCCC2)cc1)C(=O)OCC(=O)c1ccc(-c2ccccc2)cc1 (centres undefined)
inactive: M19-MEL > 100 µM | DMS-273 > 100 µM | SNB-78 > 100 µM | XF498 > 100 µM | HOP-18 22.6 µM | DMS-114 > 100 µM | DLD-1 > 100 µM

Cc1cccc(CC(C)(C)C)c1NC(=O)C(=O)C(C(=O)c1ccc2ccccc2c1)C1OC(=O)c2ccccc21 (centres undefined)
inactive: M19-MEL 14.6 µM | SNB-78 11.5 µM | DMS-114 10.4 µM | DLD-1 14 µM

N#CC1C2CCC3(CC2CCN1C(=O)c1ccccc1)OCCO3 (centres undefined)
inactive: M19-MEL > 100 µM | DMS-273 > 100 µM | SNB-78 > 100 µM | XF498 > 100 µM | HOP-18 > 100 µM | DMS-114 > 100 µM | KM-20L2 > 100 µM | DLD-1 > 100 µM

N/N=C1\C(=O)N(Cc2ccccc2)C(=O)C1C(=O)NCc1ccccc1 (centres undefined)
inactive: M19-MEL > 100 µM | SNB-78 > 100 µM | HOP-18 > 100 µM | DMS-114 > 100 µM | KM-20L2 > 100 µM | DLD-1 > 100 µM

CC1=C(C(=O)NCc2ccccc2)C(c2ccc([N+](=O)[O-])cc2)C(C(=O)NCc2ccccc2)=C(C)N1
inactive: M19-MEL 21.3 µM | DMS-273 40.6 µM | SNB-78 78.7 µM | XF498 59 µM | HOP-18 > 100 µM | DMS-114 30.2 µM | KM-20L2 22 µM | DLD-1 36.7 µM

CSc1nc(NC2OC(COC(C)=O)C(OC(C)=O)C(OC(C)=O)C2OC(C)=O)c(/N=C\C=N/c2c(NC3OC(COC(C)=O)C(OC(C)=O)C(OC(C)=O)C3OC(C)=O)nc(SC)n(C)c2=O)c(=O)n1C (centres undefined)
inactive: M19-MEL > 100 µM | DMS-273 > 100 µM | SNB-78 31.7 µM | XF498 15.6 µM | RXF 631 51.8 µM | HOP-18 > 67.1 µM | DMS-114 > 100 µM | KM-20L2 > 100 µM | DLD-1 > 100 µM

CCOC(=O)CCC(NC(=O)c1ccc(NC(OC)c2nc3cc(C(F)(F)F)ccc3nc2-c2ccccc2)cc1)C(=O)OCC (centres undefined)
inactive: M19-MEL 14.7 µM | DMS-273 7.36 µM | SNB-78 19.1 µM | RXF 631 13.7 µM | HOP-18 18.5 µM | DMS-114 12.7 µM | KM-20L2 13.6 µM | DLD-1 9.4 µM

Source: ChEMBL document CHEMBL1201862, “PubChem BioAssay data set” (2004)
